This note sets out measurements from US20240327364A1, “THERAPEUTIC TARGETING OF GPR68 TO INDUCE FERROPTOSIS” (University Of Maryland, Baltimore, priority 2023, published 2024).

For assay [1], the target named is T1, AKT3 (Homo sapiens, UniProt Q9Y243).
T1 construct: purchased DiscoveRx (Fremont, CA)
In words: KinomeScan. In kind it is binding. Particulars: read-out: % Control.

The target in assay [2] is T2, FGFR1 (Homo sapiens, UniProt P11362).
T2 construct: purchased DiscoveRx (Fremont, CA)
The assay is described as follows: KinomeScan. It counts as binding. Particulars: read-out: % Control.

Assay [3] deals with T3, FGR (Homo sapiens, UniProt P09769).
T3 construct: purchased DiscoveRx (Fremont, CA)
In words: KinomeScan. In kind it is binding. To be noted: read-out: % Control.

Assay [4] addresses T4, FLT3(D835Y) (Homo sapiens, UniProt P36888, D835Y).
T4 construct: purchased DiscoveRx (Fremont, CA)
In words: KinomeScan. Particulars: read-out: % Control. It counts as binding.

For assay [5], the target named is T5, JAK1(JH2domain-pseudokinase) (Homo sapiens, UniProt P23458).
T5 construct: JAK1(JH2domain-pseudokinase); purchased DiscoveRx (Fremont, CA)
In words: KinomeScan. It counts as binding. To be noted: read-out: % Control.

Assay [6] concerns the target T6, LOK (Homo sapiens, UniProt O94804).
T6 construct: purchased DiscoveRx
The assay is described as follows: KinomeScan. In kind it is binding. Particulars: read-out: % Control.

The target in assay [7] is T7, LZK (Homo sapiens, UniProt O43283).
T7 construct: purchased DiscoveRx
The assay is described as follows: KinomeScan. In kind it is binding. Particulars: read-out: % Control.

The target in assay [8] is T8, MKK7 (Homo sapiens, UniProt O14733).
T8 construct: purchased DiscoveRx
The assay is described as follows: KinomeScan. To be noted: read-out: % Control. It counts as binding.

Assay [9] concerns the target T9, NDR1 (Homo sapiens, UniProt Q15208).
T9 construct: purchased DiscoveRx
In words: KinomeScan. In kind it is binding. To be noted: read-out: % Control.

For assay [10], the target named is T10, PIPSK1C (Homo sapiens, UniProt O60331).
T10 construct: purchased DiscoveRx (Fremont, CA)
In words: KinomeScan. Particulars: read-out: % Control. It counts as binding.

The target of assay [11] is T11, PRKG2 (Homo sapiens, UniProt Q13237).
T11 construct: purchased DiscoveRx (Fremont, CA)
In words: KinomeScan. Particulars: read-out: % Control. It counts as binding.

Assay [12] addresses T12, RSK4(Kin Dom.1-N-terminal) (Homo sapiens, UniProt Q9UK32).
T12 construct: RSK4(Kin Dom.1-N-terminal); purchased DiscoveRx (Fremont, CA)
The assay is described as follows: KinomeScan. Particulars: read-out: % Control. In kind it is binding.

Assay [13] deals with T13, TAOK1 (Homo sapiens, UniProt Q7L7X3).
T13 construct: purchased DiscoveRx (Fremont, CA)
The assay is described as follows: KinomeScan. In kind it is binding. Particulars: read-out: % Control.

Assay [14] addresses T14, 5-HT2B (Homo sapiens, UniProt P41595).
T14 construct: host or cells: Chem-1 cells with promiscuous Gα15
In words: GPCR Profiler. In kind it is cell-based.

For assay [15], the target named is T15, BDKR2 (Homo sapiens, UniProt P30411).
T15 construct: host or cells: Chem-1 cells with promiscuous Gα15
T15 sequence (P30411 whole entry): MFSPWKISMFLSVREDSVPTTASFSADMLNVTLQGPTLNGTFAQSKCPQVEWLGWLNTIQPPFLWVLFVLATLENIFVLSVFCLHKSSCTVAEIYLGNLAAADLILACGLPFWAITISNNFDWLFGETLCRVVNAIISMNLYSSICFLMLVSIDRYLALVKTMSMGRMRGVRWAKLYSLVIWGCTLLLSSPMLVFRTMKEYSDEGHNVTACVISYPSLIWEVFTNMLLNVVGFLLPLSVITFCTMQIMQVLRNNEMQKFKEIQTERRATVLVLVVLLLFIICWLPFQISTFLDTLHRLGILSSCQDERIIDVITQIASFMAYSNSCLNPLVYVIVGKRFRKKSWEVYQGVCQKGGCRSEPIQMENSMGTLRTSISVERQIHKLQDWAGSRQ
The assay is described as follows: GPCR Profiler. In kind it is cell-based.

Assay [16] concerns the target T16, CCR10 (Homo sapiens, UniProt P46092).
T16 construct: host or cells: Chem-1 cells with Gα15
The assay is described as follows: GPCR Profiler. It counts as cell-based.

Assay [17] addresses T17, CCR8 (Homo sapiens, UniProt P51685).
T17 construct: host or cells: Chem-1 cells with Gα15
The assay is described as follows: GPCR Profiler. It counts as cell-based.

Assay [18] deals with T18, D5 (Homo sapiens, UniProt P21918).
T18 construct: host or cells: Chem-1 cells expressing Gα15
T18 sequence (P21918 whole entry): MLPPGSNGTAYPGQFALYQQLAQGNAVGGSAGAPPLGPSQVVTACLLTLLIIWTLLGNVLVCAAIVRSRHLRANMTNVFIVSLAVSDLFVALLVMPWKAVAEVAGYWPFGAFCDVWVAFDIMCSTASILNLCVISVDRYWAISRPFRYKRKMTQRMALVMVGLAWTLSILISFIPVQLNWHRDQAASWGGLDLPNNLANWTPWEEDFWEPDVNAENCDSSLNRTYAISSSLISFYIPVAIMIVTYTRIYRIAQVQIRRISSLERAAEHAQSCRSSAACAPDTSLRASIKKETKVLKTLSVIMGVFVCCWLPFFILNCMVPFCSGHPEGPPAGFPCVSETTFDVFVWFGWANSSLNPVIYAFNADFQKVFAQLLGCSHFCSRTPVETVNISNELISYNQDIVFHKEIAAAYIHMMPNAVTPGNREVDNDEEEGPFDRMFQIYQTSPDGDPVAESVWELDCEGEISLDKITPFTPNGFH
The assay is described as follows: GPCR Profiler. It counts as cell-based.

In assay [19] the target is T19, GnRH (Homo sapiens, UniProt P30968).
T19 construct: host or cells: Chem-1 cells expressing Gα15
T19 sequence (P30968 whole entry): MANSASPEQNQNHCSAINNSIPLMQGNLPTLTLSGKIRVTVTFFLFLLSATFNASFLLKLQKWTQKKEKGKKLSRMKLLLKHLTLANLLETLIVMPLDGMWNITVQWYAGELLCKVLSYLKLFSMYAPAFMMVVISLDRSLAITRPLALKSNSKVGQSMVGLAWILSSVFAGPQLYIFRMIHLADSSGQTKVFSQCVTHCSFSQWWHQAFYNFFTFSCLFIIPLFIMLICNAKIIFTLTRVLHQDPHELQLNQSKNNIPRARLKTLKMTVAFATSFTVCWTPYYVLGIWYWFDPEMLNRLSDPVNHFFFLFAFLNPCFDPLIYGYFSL
In words: GPCR Profiler. In kind it is cell-based.

The target of assay [20] is T20, LPA3 (Homo sapiens, UniProt Q9UBY5).
T20 construct: host or cells: Chem-1 cells with promiscuous Gα15
T20 sequence (Q9UBY5 whole entry, species assumed): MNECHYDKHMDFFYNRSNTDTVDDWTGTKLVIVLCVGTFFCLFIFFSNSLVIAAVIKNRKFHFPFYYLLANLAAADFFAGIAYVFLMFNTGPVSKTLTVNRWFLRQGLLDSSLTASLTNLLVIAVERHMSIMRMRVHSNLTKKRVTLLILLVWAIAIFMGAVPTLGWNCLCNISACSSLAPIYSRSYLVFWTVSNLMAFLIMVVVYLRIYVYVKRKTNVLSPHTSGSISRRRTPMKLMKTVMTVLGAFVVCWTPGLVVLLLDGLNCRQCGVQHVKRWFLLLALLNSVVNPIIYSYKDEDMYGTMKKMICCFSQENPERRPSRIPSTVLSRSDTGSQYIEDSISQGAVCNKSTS
In words: GPCR Profiler. In kind it is cell-based.

Assay [21] has as its target T21, M3 (Homo sapiens, UniProt P20309).
T21 construct: host or cells: Chem-1 cells with promiscuous Gα15
The assay is described as follows: GPCR Profiler. It counts as cell-based.

For assay [22], the system named is Daoy. In words: Cell Titer-Glo viability, Medulloblastoma. It counts as cell-based. Particulars: 72 hours. On the procedure:
OGM2 kills wide variety of cancer cell types. Cell sensitivity can be classified in to Very Sensitive (LC50<2 μM), Sensitive (LC50=2 to 10 μM), Mildly Sensitive (LC50>10 μM), and Refractory (no killing at 10 μM). The listed established cell were incubated with OGM2 at 2 μM or 10 μM for 72 hours under standard cell culture conditions, and relative cell number was assessed using Cell Titer-Glo Luminescent Cell Viability Assay (Promega™) following the manufacturer's instructions. Luminescence was determined using a Cytation 5 reader and Gen5 software package (BioTek™).
Cancer cells, which are very sensitive to killing by OGM2 (LCs <2 μM), with reported mRNA expression of GPR68 and the related proton sensing receptor GPR4. LC50's (concentrations causing 50% lethality) were determined using CellTiter-Glo (Promega™, G7570). Cells were plated in 12-well plates (CELLTREAT Scientific Products, 229112) in 1 ml of DMEM with high glucose, GlutaMAX, HEPES, or RPMI 1640 with Penicillin-Streptomycin (ThermoFisher™, 10564029, 11875119 and 15140122) and 10% FBS. Cells were incubated overnight at 37° C. in 5% CO2. Then 1 mL of fresh media was added with DMSO, OGM, or positive control (Erastin; APExBIO Technology, LLC, B1524) and cells incubated for 3 days. On the third day, all media was removed, cells were rinsed with 1×PBS, PBS was removed, and 200 μL of 1× Passive Lysis Buffer (Promega™, E1941) was added to each well. […]. […] Plates were briefly spun down and read on a GloMax-Multi Detection System (Promega™).
The cells listed in the tables above were incubated with OGM2 at 2 μM or 10 μM for 72 hours under standard cell culture conditions, and relative cell number was assessed using Cell Titer-Glo Luminescent Cell Viability Assay (Promega™) following the manufacturer's instructions. Luminescence was determined using a Cytation 5 reader and Gen5 software package (BioTek™). […] The consensus normalized expression value (“nTPM”=normalize transcript per million) was calculated as the maximum nTPM value for each gene in the two data sources.
On the technique in general: ATP-based viability assays read luminescence as a measure of living cells.

The test system of assay [23] is LPS-induced ALI. The assay is described as follows: LPS-induced acute lung injury. In kind it is in vivo, mice. Particulars: LPS 0.7 mg/kg intratracheally; compounds intraperitoneally. An excerpt: PMN (polymorphonuclear neutrophils).

Structures are written as SMILES. Where only a bound is given, the exact number is not on record here.

T21 sequence (P20309 whole entry): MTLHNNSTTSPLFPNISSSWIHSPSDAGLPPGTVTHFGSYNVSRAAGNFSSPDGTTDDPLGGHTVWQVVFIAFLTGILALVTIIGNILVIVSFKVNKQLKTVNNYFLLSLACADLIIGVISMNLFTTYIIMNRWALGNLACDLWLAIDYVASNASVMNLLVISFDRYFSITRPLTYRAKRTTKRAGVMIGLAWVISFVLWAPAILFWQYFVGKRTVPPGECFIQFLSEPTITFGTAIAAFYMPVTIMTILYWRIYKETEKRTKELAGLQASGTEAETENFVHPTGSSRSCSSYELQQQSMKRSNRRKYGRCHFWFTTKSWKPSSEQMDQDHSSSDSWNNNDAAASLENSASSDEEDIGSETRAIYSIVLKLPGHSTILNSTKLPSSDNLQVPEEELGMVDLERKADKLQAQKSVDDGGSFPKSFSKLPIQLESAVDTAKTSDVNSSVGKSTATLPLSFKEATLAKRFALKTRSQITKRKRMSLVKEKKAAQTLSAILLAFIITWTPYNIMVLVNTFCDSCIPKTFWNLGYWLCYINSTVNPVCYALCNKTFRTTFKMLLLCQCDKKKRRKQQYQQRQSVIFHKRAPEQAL
T17 sequence (P51685 whole entry, species assumed): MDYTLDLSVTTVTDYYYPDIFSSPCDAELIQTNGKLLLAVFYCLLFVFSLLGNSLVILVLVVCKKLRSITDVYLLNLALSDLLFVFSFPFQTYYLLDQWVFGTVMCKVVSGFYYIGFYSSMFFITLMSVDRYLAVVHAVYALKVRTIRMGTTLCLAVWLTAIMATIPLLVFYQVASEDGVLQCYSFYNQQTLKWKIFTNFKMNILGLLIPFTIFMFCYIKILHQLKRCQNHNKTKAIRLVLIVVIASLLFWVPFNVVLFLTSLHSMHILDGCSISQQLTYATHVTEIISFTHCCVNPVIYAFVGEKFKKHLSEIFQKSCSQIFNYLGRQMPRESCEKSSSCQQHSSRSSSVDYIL
T16 sequence (P46092 whole entry): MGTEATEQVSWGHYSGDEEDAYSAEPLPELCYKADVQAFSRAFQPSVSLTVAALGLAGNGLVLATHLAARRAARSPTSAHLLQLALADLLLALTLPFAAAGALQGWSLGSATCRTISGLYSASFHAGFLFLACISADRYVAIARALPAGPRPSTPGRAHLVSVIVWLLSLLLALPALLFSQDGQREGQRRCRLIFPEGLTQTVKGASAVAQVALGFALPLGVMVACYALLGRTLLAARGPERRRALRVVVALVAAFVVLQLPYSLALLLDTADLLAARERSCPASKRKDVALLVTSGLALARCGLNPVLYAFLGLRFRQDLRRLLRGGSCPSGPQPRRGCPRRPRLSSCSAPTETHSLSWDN
T14 sequence (P41595 whole entry): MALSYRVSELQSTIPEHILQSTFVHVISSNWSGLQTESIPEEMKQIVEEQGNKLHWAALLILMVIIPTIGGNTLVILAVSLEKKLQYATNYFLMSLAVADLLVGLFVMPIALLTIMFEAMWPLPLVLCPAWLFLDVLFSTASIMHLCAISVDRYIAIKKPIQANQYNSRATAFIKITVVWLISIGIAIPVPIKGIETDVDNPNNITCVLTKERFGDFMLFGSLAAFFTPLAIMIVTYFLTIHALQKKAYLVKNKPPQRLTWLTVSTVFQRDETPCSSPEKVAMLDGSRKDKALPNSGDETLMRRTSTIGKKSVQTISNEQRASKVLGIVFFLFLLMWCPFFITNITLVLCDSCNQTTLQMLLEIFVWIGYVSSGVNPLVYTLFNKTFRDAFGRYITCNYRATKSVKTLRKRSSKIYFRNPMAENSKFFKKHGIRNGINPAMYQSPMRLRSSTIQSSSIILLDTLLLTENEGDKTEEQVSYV
T6 sequence (O94804 whole entry): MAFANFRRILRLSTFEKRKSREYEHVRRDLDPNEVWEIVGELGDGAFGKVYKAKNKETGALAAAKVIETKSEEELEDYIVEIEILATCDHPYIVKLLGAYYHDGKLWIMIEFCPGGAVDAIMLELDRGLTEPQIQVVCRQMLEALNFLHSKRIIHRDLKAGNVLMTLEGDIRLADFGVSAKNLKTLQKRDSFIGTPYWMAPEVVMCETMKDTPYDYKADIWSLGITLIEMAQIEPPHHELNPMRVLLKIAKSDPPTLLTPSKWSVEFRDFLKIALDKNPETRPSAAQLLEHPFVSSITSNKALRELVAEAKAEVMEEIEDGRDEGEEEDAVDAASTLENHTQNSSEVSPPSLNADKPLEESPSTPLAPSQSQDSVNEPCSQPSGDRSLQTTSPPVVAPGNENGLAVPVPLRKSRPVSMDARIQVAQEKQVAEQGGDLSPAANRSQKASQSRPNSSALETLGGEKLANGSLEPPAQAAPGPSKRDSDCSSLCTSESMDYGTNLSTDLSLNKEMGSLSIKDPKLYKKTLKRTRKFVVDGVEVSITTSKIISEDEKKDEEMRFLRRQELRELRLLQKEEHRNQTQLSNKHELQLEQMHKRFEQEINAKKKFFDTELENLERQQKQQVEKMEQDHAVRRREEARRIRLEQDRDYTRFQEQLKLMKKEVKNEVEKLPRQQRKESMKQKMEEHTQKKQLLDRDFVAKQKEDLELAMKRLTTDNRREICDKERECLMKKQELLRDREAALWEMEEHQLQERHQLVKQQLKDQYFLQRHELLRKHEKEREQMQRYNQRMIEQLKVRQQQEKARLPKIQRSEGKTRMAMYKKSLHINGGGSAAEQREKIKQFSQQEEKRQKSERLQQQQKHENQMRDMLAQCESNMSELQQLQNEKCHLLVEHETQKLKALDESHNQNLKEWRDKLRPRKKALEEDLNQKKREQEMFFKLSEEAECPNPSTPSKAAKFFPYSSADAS
T1 sequence (Q9Y243 whole entry): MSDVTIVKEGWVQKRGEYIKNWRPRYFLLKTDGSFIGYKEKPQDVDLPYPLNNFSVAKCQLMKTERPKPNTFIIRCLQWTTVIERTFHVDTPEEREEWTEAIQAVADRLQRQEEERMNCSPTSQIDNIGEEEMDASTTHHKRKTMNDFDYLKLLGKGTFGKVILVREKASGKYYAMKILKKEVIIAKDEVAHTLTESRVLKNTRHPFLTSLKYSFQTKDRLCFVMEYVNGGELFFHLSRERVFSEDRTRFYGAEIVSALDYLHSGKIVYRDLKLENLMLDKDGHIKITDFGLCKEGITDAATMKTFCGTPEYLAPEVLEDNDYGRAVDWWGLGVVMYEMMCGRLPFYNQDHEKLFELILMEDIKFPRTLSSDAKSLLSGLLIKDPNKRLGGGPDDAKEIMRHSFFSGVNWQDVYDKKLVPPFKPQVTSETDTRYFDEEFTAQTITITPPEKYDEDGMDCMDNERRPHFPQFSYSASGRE

Consider `CCc1ccc2c(c1)C1(NN=C(c3cccc4ccccc34)S1)C(=O)N2` (stereo not drawn) [OGM1, 5-ethyl-5′-naphthalen-1-ylspiro[1H-indole-3,2′-3H-1,3,4-thiadiazole]-2-one], for which the remaining binding at 10 µM in assay [1], in [2], in [3], in assay [4], in [5] and in [6] was 100% in each case. Besides, the remaining binding at 10 µM was 100% in assay [7]; 99% in assay [8]; 98% in assay [9]; 97% in [10]; 91% in assay [11]; 100% in assay [12]. In assay [13], the remaining binding at 10 µM came to 83%. Also, the Antagonism is given as 0.3 in assay [14] (10 uM); 3.4 in assay [15] (10 uM); −16.7 in [16] (10 uM); −2.5 in assay [17] (10 uM); −17.8 in assay [18] (10 uM); −2.6 in assay [19] (10 uM). Also, the results for the Antagonism in [20] (10 uM) and in assay [21] (10 uM) were 1.1 and −1.9, respectively. The Agonism in assay [14] (12.5 uM) is listed as −0.1; in [15] (12.5 uM), −2.4; in assay [16] (12.5 uM), −0.2; in assay [17] (12.5 uM), 2; in assay [18] (12.5 uM), −1.8; in [19] (12.5 uM), 0.5. The Agonism in assay [20] (12.5 uM) was 0.3; in assay [21] (12.5 uM) it was 0.7.

For `CCc1ccc2c(c1)C1(NN=C(c3ccccc3)S1)C(=O)N2` (stereo not drawn) [OGM2], in assay [22], the “% Survival 2 μM OGM” value worked out at 9.0% and the “% Survival 10 μM OGM” value is given as 10.5%. In addition, in assay [22] (Homo sapiens, Daoy, read-out: LC50 (the source's name)), the CC50 is below 2 µM. In addition, in assay [23], the “inflammatory cell infiltrates in BAL” value is “reduced inflammatory cell infiltrates in BAL”.
